Laboratory results taken from patent publication US4916121A, “Antitumor composition comprising pyrimidine type nucleic acid derivative and 1-[(2-hydroxyethoxy)methyl]uracil derivative” (Teijin Limited, priority 1985, dated 1990).
Like-named read-outs stand apart in the source and are kept apart here. Blank lines part the entries; values can stand above or below the compound they belong to.

Experiments:
[1] = target: T1, pyrimidine nucleoside phosphorylase (Rattus norvegicus, UniProt F7F0D5); experiment: Inhibition of pyrimidine nucleoside phosphorylase activity in rat small intestine homogenate (decomposition of 5-fluoro-2'-deoxyuridine); type: biochemical, SD-strain rat
T1 construct: small intestine homogenates of an SD-strain male rat and a male beagle; from tissue; host or cells: small intestine homogenate of SD-strain male rat
T1 sequence (F7F0D5 1-312): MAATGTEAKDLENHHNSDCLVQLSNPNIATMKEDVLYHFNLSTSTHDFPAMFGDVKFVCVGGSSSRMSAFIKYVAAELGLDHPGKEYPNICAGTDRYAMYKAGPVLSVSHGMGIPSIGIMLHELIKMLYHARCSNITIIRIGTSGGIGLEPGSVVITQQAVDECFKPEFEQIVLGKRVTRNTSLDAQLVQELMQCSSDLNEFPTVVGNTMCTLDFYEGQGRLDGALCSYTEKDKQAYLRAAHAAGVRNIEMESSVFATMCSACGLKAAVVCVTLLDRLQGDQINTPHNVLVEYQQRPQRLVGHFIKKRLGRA
Experimental: (§1) Inhibitory effects of 1-[(2-hydroxyethoxy)methyl]-5-methyluracil, 1-[(2-hydroxyethoxy)methyl]-5-fluoro-uracil, 1-[(2-hydroxyethoxy)methyl]-5-bromouracil on pyrimidine nucleoside phosphorylase activity in the small intestine homogenates of an SD-strain male rat and a male beagle were assayed with a lowering in decomposition rate of 5-fluoro-2'-deoxyuridine (concentration: 0.025 mM) and compared with the same effects of thymidine and deoxyuridine.

[2] = system: pyrimidine nucleoside phosphorylase; experiment: Inhibition of pyrimidine nucleoside phosphorylase activity in beagle small intestine homogenate (decomposition of 5-fluoro-2'-deoxyuridine); type: biochemical; conditions: for Half-life of 5-fluoro-2'-deoxyuridine in presence of inhibitor / Inhibitory percentage: 0.4% w/v beagle small intestine homogenate, pH 7.0, 37° C.
Experimental: as §1

[3] = as above; type: biochemical; conditions: dog, small intestine homogenate, pH 7
Experimental: as §1

mouse leukemia L1210 = experiment: Antitumor effect on mouse leukemia L1210 (increase in life span), oral administration; type: in vivo; conditions: days 1, 3, 5
Text: The antitumor effect for mouse leukemia L1210 by a simultaneous oral administration of the compounds of the present invention 3',5'-didodecanoyl-5-fluoro-2'-deoxyuridine and 1-[[2-(octadecanoyloxy)ethoxy]methyl]-5-methyluracil was compared with those of (a) 5-fluoro-2'-deoxyuridine alone, (b) 3',5'-didodecanoyl-5-fluoro-2'-deoxyuridine alone, and (c) a simultaneous oral administration of 3',5'-didodecanoyl-5-fluoro-2'-deoxyuridine and 1-[(2-hydroxyethoxy)methyl]-5-methyluracil.
10^5 ascite tumor cells of mouse leukemia L1210 7 days after transplantation were transplanted intraperioneally into mouse (.male.8 weeks, Ca 25-26 g, 5 mice/group) and provided for experiments. 24 hours after transplantation of the tumor cells, the pharmaceuticals were administered orally three times on day 1, day 3 and day 5.
The antitumor effect of the pharmaceuticals were shown by the increase in life span (ILS) of the group administered with pharamaceuticals relative to the control group (with no pharmaceutical administered) (line extension %).

[4] = system: established cell line derived from a mouse; conditions: same molar concentration, in vitro; cited from earlier work
[5] = system: pyrimidine nucleoside phosphorylase; conditions: cited from earlier work
thymidine phosphorylase = experiment: Inhibition of thymidine phosphorylase activity and enzymatic stability in small intestine; type: biochemical; conditions: rat and beagle small intestine
Experimental: as §1

[6] = target: T1, pyrimidine nucleoside phosphorylase; experiment: Inhibition of pyrimidine nucleoside phosphorylase activity in rat small intestine homogenate (decomposition of 5-fluoro-2'-deoxyuridine); type: biochemical, SD-strain rat; conditions: inhibitor 0.025 mM; 0.09% w/v rat small intestine homogenate, pH 7.0, 37° C.
[7] = Inhibition of pyrimidine nucleoside phosphorylase activity in beagle small intestine homogenate (decomposition of 5-fluoro-2'-deoxyuridine); type: biochemical; conditions: dog; inhibitor 0.025 mM; 0.4% w/v beagle small intestine homogenate, pH 7.0, 37° C.
[8] = Lipid solubility: retention time in reversed phase HPLC (Lichrosorb RP-18); type: physicochemical; conditions: RP-18 4.0 × 130 mm, 1.2 ml/min, index of lipid solubility
Experimental: The retention time of the compounds of the present invention in reversed phase system high performance liquid chromatograph (Lichrosorb RP-18 column) was measured in two kinds of solvent systems.

[9] = Hydrophilic properties: retention time in normal phase HPLC (Nucleosil 5CN); type: physicochemical; conditions: n-hexane:ethanol = 88:12, 1.2 ml/min, index of hydrophilic properties
Experimental: The retention times of the compounds of the present invention in normal phase system high performance liquid chromatograph (Nucleosil) 5 CN column were measured.

[10] = Enzymatic hydrolyzability in rat duodenum epithelial homogenate; type: in vitro ADME; conditions: rat duodenum epithelial homogenate 1% w/v, pH 7.0, 37° C.
Experimental: The hydrolysis rates of the compounds of the present invention were measured at 37° C. in rat duodenum epithelial homogenate (1%, w/v; pH 7.0).

[11] = rat, small intestine homogenate, pH 7
[12] = inhibitor 0.025 mM, 0.09% w/v rat small intestine homogenate, pH 7.0, 37° C.
[13] = pH 7, read-out: Inhibitory percentage
[14] = inhibitor 0.025 mM, 0.09% w/v rat small intestine homogenate, pH 7.0, 37° C., read-out: Inhibitory percentage

Half-life of 5-fluoro-2'-deoxyuridine in presence of inhibitor ([1]; inhibitor 0.01 mM, 0.09% w/v rat small intestine homogenate, pH 7.0, 37° C.): 0.542 h | inhibition at 10 µM ([1]; inhibitor 0.01 mM, 0.09% w/v rat small intestine homogenate, pH 7.0, 37° C., read-out: Inhibitory percentage): 47.7% | half-life at 10 µM [1, 11]: > 16.7 h | Half-life of 5-fluoro-2'-deoxyuridine in presence of inhibitor ([2]; inhibitor 0.01 mM): 1.04 h | Inhibitory percentage ([2]; inhibitor 0.01 mM): 55.5% | half-life at 10 µM [3]: > 16.7 h
SMILES: O=c1[nH]c(=O)n(COCCO)cc1Br [1-[(2-hydroxyethoxy)methyl]-5-bromouracil]

Half-life of 5-fluoro-2'-deoxyuridine ([1]; rat, small intestine homogenate, 25 µM, pH 7): 0.283 h | Half-life of 5-fluoro-2'-deoxyuridine ([2]; dog, small intestine homogenate, 25 µM, pH 7): 0.463 h
SMILES: O=c1[nH]c(=O)n([C@H]2C[C@H](O)[C@@H](CO)O2)cc1F [5-Fluoro-2'-deoxyuridine, 5-fluoro-2'-deoxyuridine, reference compound]
ILS (mouse leukemia L1210; 10 mg/kg/one dose alone): 15% | ILS (mouse leukemia L1210; 30 mg/kg/one dose alone): 10% | ILS (mouse leukemia L1210; 100 mg/kg/one dose alone): 15% | ILS (mouse leukemia L1210; 300 mg/kg/one dose alone): 10% | antitumor activity relative to 5-fluorouracil [4]: 100 fold | half-life in blood (in words) ([5]; after administration in living bodies): shorter half-life in blood | decomposition by pyrimidine nucleoside phosphorylase (in words) ([5]; living bodies): rapidly decomposed

SMILES: Cc1cn([C@H]2C[C@H](O)[C@@H](CO)O2)c(=O)[nH]c1=O [Thymidine, reference compound]
inhibitory activity against thymidine phosphorylase (in words) (thymidine phosphorylase): more potenty inhibited by thymidine than by deoxyuridine | Half-life of 5-fluoro-2'-deoxyuridine in presence of inhibitor [1, 12]: 0.51 h | inhibition at 25 µM [1, 13]: 44.4% | half-life at 25 µM [6]: 1.48 h | half-life at 25 µM [7]: 0.45 h | Half-life of 5-fluoro-2'-deoxyuridine in presence of inhibitor ([2]; inhibitor 0.025 mM): 0.968 h | Inhibitory percentage ([2]; inhibitor 0.025 mM): 52.2%

Retention time (b) Acetonitrile:acetic acid (999:1) [8]: 3.00 min | Retention time (a) Acetonitrile:water (19:1) [8]: 3.96 min
SMILES: CCCCCCCCCCCC(=O)OC[C@H]1O[C@@H](n2cc(F)c(=O)[nH]c2=O)C[C@@H]1OC(=O)CCCCCCCCCCC [3'5'-didodecanoyl-5-fluoro-2'-deoxyuridine]
ILS (mouse leukemia L1210; 10 mg/kg/one dose alone): 0% | ILS (mouse leukemia L1210; 30 mg/kg/one dose alone): 5% | ILS (mouse leukemia L1210; 100 mg/kg/one dose alone): 15% | ILS (mouse leukemia L1210; 300 mg/kg/one dose alone): 40%

Retention time [9]: 5.38 min | Hydrolysis rate constant [10]: 0.027 min.^-1
SMILES: CCCCCCCCCCCCCC(=O)OC[C@H]1O[C@@H](n2cc(F)c(=O)[nH]c2=O)C[C@@H]1OC(=O)CCCCCCCCCCCCC [3'5'-ditetradecanoyl-5-fluoro-2'-deoxyuridine]

SMILES: O=c1ccn([C@H]2C[C@H](O)[C@@H](CO)O2)c(=O)[nH]1 [Deoxyuridine, reference compound]
Half-life of 5-fluoro-2'-deoxyuridine in presence of inhibitor [1, 12]: 0.37 h | inhibition at 25 µM [1, 13]: 23.4% | half-life at 25 µM [1, 11]: 1.1 h | Half-life of 5-fluoro-2'-deoxyuridine in presence of inhibitor ([2]; inhibitor 0.025 mM): 0.508 h | Inhibitory percentage ([2]; inhibitor 0.025 mM): 8.8% | half-life at 25 µM [3]: 0.538 h

Half-life of 5-fluoro-2'-deoxyuridine in presence of inhibitor [1, 12]: 1.677 h | inhibition at 25 µM [1, 14]: 83.1% | half-life at 25 µM [1, 11]: > 16.7 h | Half-life of 5-fluoro-2'-deoxyuridine in presence of inhibitor ([2]; inhibitor 0.025 mM): 1.42 h | Inhibitory percentage ([2]; inhibitor 0.025 mM): 67.3% | half-life at 25 µM [3]: > 16.7 h
SMILES: Cc1cn(COCCO)c(=O)[nH]c1=O [1-[(2-hydroxyethoxy)methyl]-5-methyluracil]
ILS (mouse leukemia L1210; 200 mg/kg/one dose alone): 12%

Retention time [9]: 5.48 min | Hydrolysis rate constant [10]: 0.052 min.^-1
SMILES: CCCCCCCCCCCCCCCCCCCC(=O)OCCOCn1cc(C)c(=O)[nH]c1=O [1-[[2-(eicosanoyloxy)-ethoxy]-methyl]-5-methyluracil]

Retention time (b) Acetonitrile:acetic acid (999:1) [8]: 3.15 min | Retention time (a) Acetonitrile:water (19:1) [8]: 3.53 min
SMILES: CCCCCCCCCCCCCCCC(=O)OCCOCn1cc(C)c(=O)[nH]c1=O [1-[[2-(Hexadecanoyloxy)-ethoxy]-methyl]-5-methyluracil]

Half-life of 5-fluoro-2'-deoxyuridine in presence of inhibitor [1, 12]: 0.823 h | inhibition at 25 µM [1, 14]: 65.6% | half-life at 25 µM [1, 11]: > 16.7 h | Half-life of 5-fluoro-2'-deoxyuridine in presence of inhibitor ([2]; inhibitor 0.025 mM): 0.78 h | Inhibitory percentage ([2]; inhibitor 0.025 mM): 40.6% | half-life at 25 µM [3]: > 16.7 h
SMILES: O=c1[nH]c(=O)n(COCCO)cc1F [1-[(2-hydroxyethoxy)methyl]-5-fluorouracil]

SMILES: CCCCCCCCCCCCCCCCCC(=O)OCCOCn1cc(C)c(=O)[nH]c1=O [1-[[2-(octadecanoyloxy)ethoxy]methyl]-5-methyluracil]
ILS (mouse leukemia L1210; 450 mg/kg/one dose alone): 12%
